In ChEMBL document CHEMBL1201862, “PubChem BioAssay data set” (2004):
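All cell lines were grown in 96-well plates and treated with compound for 48 hours. Here, GI50 denotes the concentration required for 50% inhibition of growth.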 Activity calls are given as the source filed them. Cut-off read from the data, not from the text of the source: active = GI50 up to about 1.1 µM and inactive = higher.

What was measured:
Assay in all cases: NCI-60 cell line screen, 48 h
[1] = tested on: 786-0
[2] = tested on: A498
[3] = tested on: CAKI-1
[4] = tested on: DMS-273
[5] = tested on: EKVX
[6] = tested on: HT-29
[7] = tested on: IGROV-1
[8] = tested on: Malme-3M
[9] = tested on: NCI-H226
[10] = tested on: NCI-H23
[11] = tested on: NCI-H460
[12] = tested on: NCI-H522
[13] = tested on: RPMI-8226
[14] = tested on: RXF 393
[15] = tested on: SF-539
[16] = tested on: SK-MEL-28
[17] = tested on: SN12C
[18] = tested on: UACC-62
[19] = tested on: Hs-578T
[20] = tested on: MDA-MB-231

| Compound | GI50 [1] | GI50 [2] | GI50 [3] | GI50 [4] | GI50 [5] | GI50 [6] | GI50 [7] | GI50 [8] | GI50 [9] | GI50 [10] | GI50 [11] | GI50 [12] | GI50 [13] | GI50 [14] | GI50 [15] | GI50 [16] | GI50 [17] | GI50 [18] | GI50 [19] | GI50 [20] |
| --- | --- | --- | --- | --- | --- | --- | --- | --- | --- | --- | --- | --- | --- | --- | --- | --- | --- | --- | --- | --- |
| C=C1CC[C@@H]2C(C)(C)CCC[C@@]2(C)[C@@H]1Cc1cc(O)ccc1O | 3.4 µM (inactive) | 13.7 µM (inactive) | 8.26 µM (inactive) | 5.92 µM (inactive) | 4.65 µM (inactive) | 16.5 µM (inactive) | 2.13 µM (inactive) | 5.25 µM (inactive) | 2.55 µM (inactive) | 5.97 µM (inactive) | 14 µM (inactive) | 1.84 µM (inactive) | 3.14 µM (inactive) | 1.67 µM (inactive) | 1.93 µM (inactive) | 2.56 µM (inactive) | 4.27 µM (inactive) | 10.4 µM (inactive) | – | – |
| NS(=O)(=O)c1ccc(NC(=O)Cc2nc3ccccc3s2)cc1 | 19.4 µM (inactive) | 21.1 µM (inactive) | 16.5 µM (inactive) | 18.7 µM (inactive) | 22.6 µM (inactive) | 18.3 µM (inactive) | 15.7 µM (inactive) | 16 µM (inactive) | 17.9 µM (inactive) | 15.9 µM (inactive) | 17.5 µM (inactive) | 18.1 µM (inactive) | 21.3 µM (inactive) | 18.6 µM (inactive) | 18.3 µM (inactive) | 17.7 µM (inactive) | 17.2 µM (inactive) | 15.7 µM (inactive) | – | – |
| COc1ccc(OC)c2c1C(=O)C(Cl)=C(Cl)C2=O | 3.41 µM (inactive) | 20.3 µM (inactive) | 2.56 µM (inactive) | 7.57 µM (inactive) | 8.3 µM (inactive) | 4.18 µM (inactive) | 15.5 µM (inactive) | 2.25 µM (inactive) | 18.7 µM (inactive) | 6.37 µM (inactive) | 19.8 µM (inactive) | 2.04 µM (inactive) | 3.02 µM (inactive) | 1.85 µM (inactive) | 4.72 µM (inactive) | 3.79 µM (inactive) | 10.7 µM (inactive) | 2.58 µM (inactive) | 2.65 µM (inactive) | 2.74 µM (inactive) |
| CCN(CC)CCNc1ccc2ncn3c4ccc(O)cc4c(=O)c1c23 | 0.459 µM (active) | 1.12 µM (inactive) | 0.0649 µM (active) | 0.0731 µM (active) | 7.28 µM (inactive) | 0.679 µM (active) | 0.479 µM (active) | 1.48 µM (inactive) | 0.04 µM (active) | 0.194 µM (active) | 0.0291 µM (active) | 0.458 µM (active) | 0.267 µM (active) | 0.178 µM (active) | 0.458 µM (active) | 7.76 µM (inactive) | 0.22 µM (active) | 1.25 µM (inactive) | 3.11 µM (inactive) | 1.65 µM (inactive) |
| CCOc1ccc(/N=C\c2ccc3cc(C)ccc3n2)cc1 | 51.6 µM (inactive) | 72.3 µM (inactive) | 36.9 µM (inactive) | 43.2 µM (inactive) | 55.6 µM (inactive) | 34.6 µM (inactive) | 77.6 µM (inactive) | > 100 µM (inactive) | > 100 µM (inactive) | > 100 µM (inactive) | 69.3 µM (inactive) | > 100 µM (inactive) | 22.8 µM (inactive) | 91 µM (inactive) | 40.3 µM (inactive) | > 100 µM (inactive) | > 100 µM (inactive) | 37.9 µM (inactive) | – | – |
| Cc1ccc(NC(=O)CC2C(=O)Nc3ccccc3[S+]2[O-])cc1C (stereo not drawn) | 24.8 µM (inactive) | > 100 µM (inactive) | > 100 µM (inactive) | 28.1 µM (inactive) | > 100 µM (inactive) | > 100 µM (inactive) | > 100 µM (inactive) | > 100 µM (inactive) | > 100 µM (inactive) | 63.5 µM (inactive) | > 100 µM (inactive) | 32.1 µM (inactive) | 29 µM (inactive) | 22 µM (inactive) | 23.7 µM (inactive) | > 100 µM (inactive) | > 100 µM (inactive) | > 100 µM (inactive) | – | – |
| CC(C)Cc1ccc(C(C)CC2=CCC(CN(C)C)C2=O)cc1 (stereo not drawn) | 1.79 µM (inactive) | 18.5 µM (inactive) | 1.84 µM (inactive) | 4.41 µM (inactive) | 16.4 µM (inactive) | 6.38 µM (inactive) | 9.51 µM (inactive) | 6.15 µM (inactive) | 16.7 µM (inactive) | 12.9 µM (inactive) | 31.7 µM (inactive) | 4.06 µM (inactive) | 0.333 µM (active) | 5.78 µM (inactive) | 16.3 µM (inactive) | 9.31 µM (inactive) | 9.1 µM (inactive) | 10 µM (inactive) | 18.3 µM (inactive) | 10.5 µM (inactive) |
| O=C(O)CN(c1ccccc1)S(=O)(=O)c1cccc([N+](=O)[O-])c1 | > 100 µM (inactive) | > 100 µM (inactive) | > 100 µM (inactive) | > 100 µM (inactive) | > 100 µM (inactive) | > 100 µM (inactive) | > 100 µM (inactive) | > 100 µM (inactive) | > 100 µM (inactive) | > 100 µM (inactive) | > 100 µM (inactive) | > 100 µM (inactive) | > 100 µM (inactive) | > 100 µM (inactive) | > 100 µM (inactive) | > 100 µM (inactive) | > 100 µM (inactive) | > 100 µM (inactive) | – | – |
| CCN(CC)[C@@H]1c2cc3c(cc2C(c2cc(OC)c(O)c(OC)c2)C2C(=O)CO[C@@H]21)OCO3 (stereo partly drawn) | > 100 µM (inactive) | > 100 µM (inactive) | > 100 µM (inactive) | > 100 µM (inactive) | > 100 µM (inactive) | > 100 µM (inactive) | > 100 µM (inactive) | > 100 µM (inactive) | > 100 µM (inactive) | > 100 µM (inactive) | > 100 µM (inactive) | > 100 µM (inactive) | > 100 µM (inactive) | 65.5 µM (inactive) | > 100 µM (inactive) | > 100 µM (inactive) | > 100 µM (inactive) | > 100 µM (inactive) | – | – |
